This is an account of results in ChEMBL document CHEMBL1130299, “Time-dependent inhibition of neuronal nitric oxide synthase by N-propargylguanidine” (Bioorg Med Chem Lett, 1997).

In this test the test system is Nitric oxide synthase 1 (Bos taurus). The experiment in a line: Inactivation constant for Neuronal nitric oxide synthase (nNOS) from bovine brain.

Regarding `C#CCNC(=N)N`, the K inact turned out to be 0.39 min⁻¹.
